# Measured values taken from patent publication US4544556A, “Xanthine derivatives, pharmaceutical compositions containing same and their therapeutic use” (Malesci S.p.A. Istituto Farmacologico, priority 1982, dated 1985).
# Where two headings read alike, the source gives them in different places.
# Legend:
# Acute toxicity = conditions: mouse, in vivo, male Swiss mouses about 20 g, empty since 16 hours, read-out: DL50 (the source's name)
# Method: The compound has been administered either per os or by intravenous injection to male Swiss mouses having a weight of about 20 g, empty since 16 hours.
# [1] = system: acetylcholine induced bronchospasm; assay: Antibronchospastic activity (acetylcholine induced bronchospasm, Konzett-Rossler method); assay type: in vivo, guinea pigs; conditions: Cavia porcellus, im, read-out: ED50 (50% reduction of acetylcholine induced bronchospasm)
# From the text: The test has been carried out in anaesthesized adult guinea pigs under artificial respiration.
# brain P.D.E. = assay: Antiphosphodiesterase activity, brain P.D.E.; assay type: biochemical, Wistar rats; conditions: rat brain, relative to theophylline
# From the text: (§1) The preparation of the enzyme from heart, lungs and brain of Wistar rats and the activity test of P.D.E. have been carried out according to the R. W. BUTCHER and E. W. […] (J. Biol. Chem. 237, 1244; 1962).
# heart P.D.E. = assay: Antiphosphodiesterase activity, heart P.D.E.; assay type: biochemical, Wistar rats; conditions: rat heart, relative to theophylline
# From the text: as §1
# lung P.D.E. = assay: Antiphosphodiesterase activity, lung P.D.E.; assay type: biochemical, Wistar rats; conditions: rat lungs, relative to theophylline
# From the text: as §1
# mouses = assay: Activity on CNS: reaction to subtoxic dose of cardiazole, mouses; assay type: in vivo; conditions: cardiazole i.p. 60-70 mg/Kg
# rats = assay: Activity on CNS: reaction to subtoxic dose of cardiazole, rats; assay type: in vivo; conditions: cardiazole i.p. 60-70 mg/Kg
# guinea pigs = assay: Activity on CNS: reaction to subtoxic dose of cardiazole, guinea pigs; assay type: in vivo; conditions: cardiazole i.p. 60-70 mg/Kg
# [2] = 0.5 h, 30' after intramuscular administration
# [3] = 1 h, 60' after intramuscular administration
# [4] = 1.5 h, 90' after intramuscular administration
Compound,"LD50 (Acute toxicity; po, per os) [mg/kg]",LD50 (Acute toxicity; intravenous injection) [mg/kg],"ED50 [1, 2] [µmol/kg]","ED50 [1, 3] [µmol/kg]","ED50 [1, 4] [µmol/kg]",activity against brain P.D.E. in comparison with theophylline (brain P.D.E.),activity against heart P.D.E. in comparison with theophylline (heart P.D.E.),activity against lung P.D.E. in comparison with theophylline (lung P.D.E.),% dead animals (mouses; 25 mg/kg S.C. (20')) [%],% dead animals (mouses; 50 mg/kg S.C. (20')) [%],% dead animals (mouses; 100 mg/kg S.C. (20')) [%],% dead animals (rats; 50 mg/kg S.C. (20')) [%],% dead animals (rats; 100 mg/kg S.C. (20')) [%],% dead animals (guinea pigs; 50 mg/kg S.C. (20')) [%],% dead animals (guinea pigs; 100 mg/kg S.C. (20')) [%]
"CC(C)Cn1cnc2c1c(=O)n(C)c(=O)n2C [7-isobutyl theophylline, 1,3-dimethyl-7-isobutyl-xanthine]",199,129,120,140,160,twice more active,four times more active,four times more active,0,0,0,0,0,0,0
"Cn1c(=O)c2[nH]cnc2n(C)c1=O [Theophylline, theophylline, reference compound]",,,270,230,200,,,,,,,,,,
